Test results from patent US12053506B2, “Romo1-derived antimicrobial peptides and variants thereof” (priority 2019, dated 2024).
≈ marks a conversion by molar mass, not a printed value. Read-outs that look alike come from different tables or passages of the source. Non-standard residues stand in square brackets, D forms with d. Residues, ends and D or L forms follow the SMILES beside them. No end group written: not given here.

B1: MPVAVGPYGQSQPSCFDRVKMGFVMGCAVGMAAGALFGTFSCLRIGMRGRELMGGIGKTMMQSGGTFGTFMAIGMGIRC (protein)
chain: MPVAVGPYGQSQPSCFDRVKMGFVMGCAVGMAAGALFGTFSCLRIGMRGRELMGGIGKTMMQSGGTFGTFMAIGMGIRC
modifications: Homo sapiens Romo1

Columns and labels:
[1] = tested on: Pseudomonas aeruginosa (ATCC 27853); type: cell-based; details: for MBC Pseudomonas aeruginosa: Tables 11-15, no unit printed
Source text: (§1) Romo1 protein comprises two α-helices. The present inventors synthesized the α-helix 2 region having both hydrophilicity and hydrophobicity, and evaluated the antibacterial activity thereof using minimum bactericidal concentration (MBC) assay. The α-helix 2 region was named KU-5279 (the 52-79 amino acid region of Romo1 protein). Then, in order to identify peptides that are beneficial for human application and have excellent antibacterial activity, the present inventors synthesized several peptides comprising a sequence of contiguous amino acids starting at any amino acid selected from the 52-79 amino acid region of Romo1 protein, and comparatively evaluated the antibacterial activities of the peptides by minimum bactericidal concentration assay (See Table 1 below for information on each peptide). Evaluation of the antibacterial activity of each peptide by minimum bactericidal concentration assay was specifically performed as follows. First, each of Pseudomonas aeruginosa (ATCC 27853) and Staphylococcus aureus (ATCC 29213) was cultured in 3% (w/v) TSB (Tryptic Soy Broth) liquid medium at 37° C. and 200 rpm for 4 hours, and then further cultured under the same conditions for 3 hours to a concentration of 5×10^6 CFU/ml. Strain solutions were prepared by diluting each of the further cultured strains with SP (sodium phosphate; 10 mM sodium phosphate, 1% TSB) buffer to a final concentration of 2×10^5 CFU/ml. Then, each peptide at varying concentrations (0 μg/ml to 300 μg/ml) was dispensed into each well of a 96-well microplate, and 100 μl (1×10^5 CFU/ml) of each of the prepared strain solutions was added thereto, mixed therewith, and allowed to react with the peptide in an incubator at 37° C. for 1 hour. In addition, 30 g/L of TS (tryptic soy) and 15 g/L of agar were dissolved in distilled water and sterilized, and then 25 ml of the solution was poured onto a 100 mm round plate and solidified at room temperature for one day or more, thereby preparing a TS agar plate. 10 μl of each reaction solution of the peptide and the strain was plated on the TS agar plate at a constant size, and incubated in an incubator at 37° C. for 18 hours, and then colony formation on the plate was checked. The minimum bactericidal concentration was defined as the minimum concentration of the peptide at which no colony was formed, and the experimental results are shown in Table 1 below.

[2] = tested on: Staphylococcus aureus (ATCC 29213); type: cell-based; details: for MBC Staphylococcus aureus: Tables 11-15, no unit printed
Source text: as §1

[3] = tested on: methicillin-resistant Staphylococcus aureus (ATCC 33591); details: Tables 11-15, no unit printed
Method: First, each of Pseudomonas aeruginosa (ATCC 27853) and Staphylococcus aureus (ATCC 29213) was cultured in 3% (w/v) TSB (Tryptic Soy Broth) liquid medium at 37° C. and 200 rpm for 4 hours, and then further cultured under the same conditions for 3 hours to a concentration of 5×10^6 CFU/ml. Strain solutions were prepared by diluting each of the further cultured strains with SP (sodium phosphate; 10 mM sodium phosphate, 1% TSB) buffer to a final concentration of 2×10^5 CFU/ml.
(§2) Then, each peptide at varying concentrations (0 μg/ml to 300 μg/ml) was dispensed into each well of a 96-well microplate, and 100 μl (1×10^5 CFU/ml) of each of the prepared strain solutions was added thereto, mixed therewith, and allowed to react with the peptide in an incubator at 37° C. for 1 hour.
In addition, 30 g/L of TS (tryptic soy) and 15 g/L of agar were dissolved in distilled water and sterilized, and then 25 ml of the solution was poured onto a 100 mm round plate and solidified at room temperature for one day or more, thereby preparing a TS agar plate. 10 μl of each reaction solution of the peptide and the strain was plated on the TS agar plate at a constant size, and incubated in an incubator at 37° C. for 18 hours, and then colony formation on the plate was checked.
Specifically, each type of bacteria was cultured in 3% (w/v) TSB (Tryptic Soy Broth) liquid medium at 37° C. and 200 rpm for 4 hours, and then further cultured under the same conditions for 3 hours to a concentration of 5×10^6 CFU/ml. Strain solutions were prepared by diluting each of the […] of 2×10^5 CFU/ml.
as §2, with “Then, the KU-5878” for “Then, each”
In addition, 10 μl of each reaction solution of the peptide and the strain was plated on the TS agar plate at a constant size, and incubated in an incubator at 37° C. for 18 hours, and then colony formation on the plate was checked.

CRPA = experiment: MBC, evaluation of antibacterial activities of KU-5878 variants; type: cell-based; details: Tables 11-15, no unit printed
Method: Variants were prepared by deleting one amino acid from the amino acid sequence of KU-5878 (SEQ ID NO: 13), and the antibacterial activities thereof were evaluated.
Variants were prepared by deleting two or more amino acids from the amino acid sequence of KU-5878 (SEQ ID NO: 13), and the antibacterial activities thereof were evaluated.
One amino acid in the amino acid sequence of KU-5878 (SEQ ID NO: 13) was substituted, and the antibacterial activities of the peptides were evaluated.
Substitutions of Q62K, S63K and T66K were sequentially added to the amino acid sequence of KU-5878-T59K, and the antibacterial activities of the peptides were evaluated.
An amino acid repeat sequence was added to the C-terminus of KU-5878, and the antibacterial activities of the peptides were evaluated. According to Table 15 below, when the R (arginine) repeat sequence or K (lysine) sequence was added to the C-terminus of KU-5878, the antibacterial activity of the peptide increased.

| Molecule | MBC Pseudomonas aeruginosa [1] [µg/mL] | MBC Staphylococcus aureus [2] [µg/mL] | MBC MRSA [3] [µg/mL] | MBC CRPA (CRPA) [µg/mL] | MBC value (μg/ml) against Pseudomonas aeruginosa ([1]; ATCC 27853, 1 h) [µg/mL] | MBC value (μg/ml) against Staphylococcus aureus ([2]; ATCC 29213, 1 h) [µg/mL] | also measured |
| --- | --- | --- | --- | --- | --- | --- | --- |
| KT-MQS-GTFGTFMAIGMGIR [5878-d60M, d64G] | 100 | 100 | 110 | 100 | – | – | – |
| KTMMQSGGTFGTFMAIGMGIRC [KU-5879] | – | – | – | – | 150 | – | – |
| KTMMQSGGTFGT-MAIGMGIR [Peptide 5878-d70F] | 200 | 200 | 200 | 200 | – | – | – |
| KTMMQS-GTFGTFMAIGMGIR [Peptide 5878-d64G] | 100 | 100 | 100 | 110 | – | – | – |
| KHMMQSGGTFGTFMAIGMGIR [KU-5878-T59H] | > 300 | > 300 | > 300 | > 300 | – | – | – |
| KTMMQSGGTFGTFMGIGMGIR [KU-5878-A72G] | > 300 | > 300 | > 300 | > 300 | 350 | 350 | – |
| CC[C@@H](C)[C@@H](NC(=O)CNC(=O)[C@@H](CCSC)NC(=O)CNC(=O)[C@H](NC(=O)[C@@H](C)NC(=O)[C@@H](CCSC)NC(=O)[C@@H](Cc1ccccc1)NC(=O)[C@H](NC(=O)CNC(=O)[C@@H](Cc1ccccc1)NC(=O)[C@H](NC(=O)CNC(=O)CNC(=O)[C@@H](CO)NC(=O)[C@@H](CCC(N)=O)NC(=O)[C@@H](CCSC)NC(=O)[C@@H](CCSC)NC(=O)[C@H](NC(=O)[C@H](N)CCCCN)[C@H](C)O)[C@H](C)O)[C@H](C)O)[C@H](C)CC)C(=O)N[C@H](CCCNC(=N)N)C(=O)O [KU-5878-D(all)] (H-[dK][dT][dM][dM][dQ][dS]GG[dT][dF]G[dT][dF][dM][dA][dI]G[dM]G[dI][dR]-OH; N-terminus and C-terminus assumed) | – | – | – | – | – | – | MBC (μg/ml) value against Pseudomonas aeruginosa ([1]; ATCC 27853, 1 h): 300 µg/mL (≈ 135 µM); MBC (μg/ml) value against Staphylococcus aureus ([2]; ATCC 29213, 1 h): 300 µg/mL (≈ 135 µM) |
| KTMMQSGGTFGTFMAIGMGI [KU-5877] | – | – | – | – | >300 | >300 | – |
| GGIGKTMMQSGGTFGTFMAIGMGIRC [KU-5479] | – | – | – | – | – | 200 | – |
| GKTMMQSGGTFGTFMAIGMGIRC [KU-5779] | – | – | – | – | 280 | 250 | – |
| CLRIGMRGRELMGGIGKTM [pCM19, reference compound] | – | – | – | – | 300 | 250 | – |
| KTMMQSGGTFGTFMAIGM [KU-5875] | – | – | – | – | >300 | >300 | – |
| KTMMQSGGTFGTFMAIGMG [KU-5876] | – | – | – | – | >300 | >300 | – |
| KTMMQSGGTFGTFMAIGMGIR-NH2 [KU-5878-NH2] | – | – | – | – | 60 | 70 | – |
| B1 | – | – | – | – | – | – | MBC value (μg/ml) against Pseudomonas aeruginosa ([1]; ATCC 27853, 1 hour reaction at 37° C.): Insoluble; MBC value (μg/ml) against Staphylococcus aureus ([2]; ATCC 29213, 1 hour reaction at 37° C.): Insoluble |
